Where a name gives a salt, the structure may show the parent alone. Read-outs that look alike come from different tables or passages of the source.
Legend:
[1] = system: P. falciparum parasites (W2 clone) chloroquine-resistant; test: Antiplasmodial activity, anti-HRPII assay; assay type: cell-based, Plasmodium falciparum; conditions: for SI: LC50 (HepG2)/EC50 (P. falciparum); for EC50: Plasmodium falciparum, W2, 24 h; for Antiplasmodial Activity: summarized outcome
From the text: P. falciparum W2 clone was maintained in continuous culture as previously described. […] Prior to testing, the ring-stage parasites were synchronized using sorbitol.
The test quantification was read at 450 nm on a spectrophotometer (SpectraMax340PC384, Molecular Devices Sunnyvale, CA, USA), and the drug activity was expressed as the half-maximal inhibitory concentration (EC50) compared to the drug-free controls using the curve-fitting software Origin 8.0 (OriginLab Corporation, Northampton, MA, USA).

in vitro [2] = assay type: cell-based; conditions: mouse
Description: Primary cultures of cardiac cells (CC) were obtained as reported in [50]. The cultures were sustained in Dulbecco’s modified Eagle’s medium (DMEM) supplemented with 10% horse serum, 5% fetal bovine serum (FBS), 2.5 mM CaCl2, 1 mM L-glutamine, and 2% chicken embryo extract. Cell cultures were maintained at 37 °C in an atmosphere of 5% CO2, and assays were run at least three times in triplicate.
(§1) Cardiac cell cultures were incubated for 24 h at 37 °C with different concentrations of the compounds (up to 200 µM) diluted in DMEM (without phenol red). Their morphology and spontaneous contractibility were evaluated by light microscopy and then the cellular viability was determined by the PrestoBlue® assay. For this colorimetric bioassay, PrestoBlue® (Invitrogen, Waltham, MA, USA) was added to each well (using a 10:1 medium/dye), the plate was further incubated for 24 h followed by optical density (OD) measurement performed at 570 and 600 nm, as recommended by the manufacturer.

[3] = system: trypomastigote forms of T. cruzi (Y strain); test: Trypanocidal activity on bloodstream trypomastigotes; assay type: cell-based, Trypanosoma cruzi; conditions: for EC50: Trypanosoma cruzi, bloodstream trypomastigotes, Y strain, 24 h at 37 °C
Description: (§2) Bloodstream trypomastigote forms (BT) of the Y strain were obtained from infected albino Swiss mice at the peak of parasitemia, isolated by differential centrifugation and resuspended in DMEM to a parasite concentration of 10^7 cells/mL in the presence of 10% of mouse blood. This suspension (100 µL) was added in the same volume of 13 (a–d) and 14 (a–d) previously prepared at twice the desired final concentrations.

T. cruzi = test: Trypanocidal in vitro phenotypic screening, overall outcome; assay type: cell-based, Trypanosoma cruzi; conditions: summarized outcome
Description: as §2
(§3) Tissue culture-derived trypomastigotes (Tulahuen strain expressing the E. coli β-galactosidase gene) were maintained in L929 cell lines and collected from the supernatant after 96 h of parasite infection, following previously established protocols. Briefly, after 24 h of L929 platting (4 × 10^3 cells/well), the cultures were incubated with trypomastigotes (10:1 parasite/host cell ratio) for 2 h at 37 °C. Then, the cell cultures were rinsed to remove non-internalized parasites and then further incubated for 24 h at 37 °C. Then the infected cultures were followed using two sequential protocols. […] After this period, 50 µL chlorophenol red glycoside (500 µM) in 0.5% Nonidet P40 was added to each well and the plate was incubated for more than 18 h at 37 °C, after which the absorbance was measured at 570 nm. Then, the compounds were next evaluated using dose–response assays in which Tulahuen-infected-L929 cells were exposed to different non-toxic concentrations of each compound (0–50 µM) and then after 96 h of incubation the same procedure was conducted as above reported. Controls with untreated and Bz-treated cells are run in parallel. The results were expressed as the percent difference in the reduction between treated and untreated cells.

in vitro [4] = assay type: cell-based; conditions: human
Description: Human hepatocellular carcinoma (HepG2) and Chinese Hamster Ovary (CHO-K1) cells obtained from the American Type Culture Collection (Manassas, VA, USA) were cultured in Eagle’s medium (MEM, Gibco®, Waltham, MA, USA) containing 10% fetal bovine serum (FBS) plus 100 µg/mL streptomycin and 100 µg/mL penicillin at 37 °C in a 5% CO2 atmosphere. Logarithmic-phase cells were used in all the experiments.
Fresh HepG2 and CHO-K1 cells were seeded at a density of 1 × 10^4/well. […] Briefly, after treatment, the culture medium was replaced by 90 μL fresh culture medium and 10 μL WST-1 reagent and incubated at 37 °C and 5% CO2 for 3 h. The absorbance was then measured at 440 nm according to the kit protocol.

in vitro [5] = assay type: cell-based; conditions: mouse; remark: listed apart in the source
Description: as §1

[6] = system: intracellular forms of T. cruzi (Tulahuen strain transfected with β-galactosidase); test: Activity against intracellular T. cruzi in L929 cells; assay type: cell-based, Trypanosoma cruzi; conditions: for EC50: Trypanosoma cruzi, L929, intracellular forms, Tulahuen strain, read-out: EC50; for EC50 / 10µM (% of Parasite Lysis): 96 h; for 10µM (% of Parasite Lysis): fixed concentration 10 µM
Description: as §3, with “Then, the compounds were next evaluated using dose–response assays in which Tulahuen-infected-L929 cells were exposed to different non-toxic concentrations of each compound (0–50 µM) and then after 96 h of incubation the same procedure was conducted as above reported.” left out

[7] = system: intracellular forms of T. cruzi (Tulahuen strain transfected with β-galactosidase); design: method as in PMID 24590476; conditions: read-out: EC90 value of Bz against intracellular forms of T. cruzi; cited from earlier work
HepG2 cells = test: In vitro micronuclei assay, HepG2; assay type: cell-based, human; conditions: human, 3 h
Description: Fresh HepG2 and CHO-K1 cells were seeded at the density of 1 × 10^5 cells/mL into 24-well plates (1 mL/per well). The compounds 13 (a–d) were then added to the medium to final concentrations of 500, 1000 and 2000 µM and incubation continued for 3 h or 24 h. DMSO 10% was used as the negative control, and, BaP (80 µM) for HepG2 and MMC (5 µM) for CHO-K1 were the positive controls. After exposure to the compounds, the cells were incubated for more than 24 h under growth conditions before quantification of the micronuclei and cytotoxicity. The cytogenetic studies were carried out in triplicate as described previously (see [51]). In order to determine the mitotic index and the number of cells with micronuclei, the medium was replaced by a cold methanol-glacial acetic acid (3:1) fixative for 30 min, and the cells then rinsed with distilled water for 2 min and air dried. The fixed cells were stained with 4,6-diamidino-2-phenylindole (DAPI) ([…]) dissolved in McIlvaine buffer (0.1 M citric acid plus 0.2 M Na2HPO4, pH 7.0) for 60 min, washed with McIlvaine buffer for 5 min, briefly rinsed with distilled water and mounted in glycerol. To determine the mitotic index and the number of cells with micronuclei, 1000 cells per well (3000 cells per concentration) were analyzed under a fluorescence microscope. The results for micronuclei were presented as the percentage of cells containing micronuclei in the 3000 cells/concentration group analyzed. Cells that glowed brightly and had homogenous nuclei were considered as having normal phenotypic morphology. Apoptotic nuclei were identified by the condensed chromatin at the periphery of the nuclear membrane or by fragmented nuclear body morphology. Necrotic cells presented chromatin forms with irregularly shaped aggregates, a pyknotic nucleus (shrunken and darkly stained) and cell membrane disruption, with cellular debris spilled into the extracellular milieu. Once again, 3000 cells were counted and the percentage of viable cells was evaluated, discounting apoptotic and necrotic cells. Statistical differences between the groups were analyzed by two-way ANOVA (p < 0.01) and Tukey’s post hoc test.

[8] = P. falciparum W2 clone, 24 h at 37 °C, read-out: EC50

Compound	SI [1]	EC50 [1, 8] [µM]	Antiplasmodial Activity [1]	CC50 at 24 h (in vitro [2]) [µM]	EC50 [3] [µM]	Trypanocidal Activity (T. cruzi)	CC50 at 24 h (in vitro [4]) [µM]	CC50 at 96 h (in vitro [5]) [µM]	SI ([3]; LC50 (cardiac cells)/EC50 (trypomastigotes))	SI ([6]; LC50 (L929)/EC50 (intracellular forms))	EC50 [6] [µM]	10µM (% of Parasite Lysis) [6] [%]	EC90 [7] [µM]	EC50 [1] [µM]	cytotoxicity (survival rate) in micronuclei assay (HepG2 cells)
CC(=O)Nc1ccc(Cl)cc1C(F)(F)C(=O)NCC[C@@H](O)C[C@@H](O)CC(=O)O [Compound 14c, Sodium (3R,5R)-7-(2-(2-acetamido-5-chlorophenyl)-2,2-difluoroacetamide)-3,5-dihydroxyheptanoate salt]	Inactive	> 112	No	> 500	> 500	No	> 450	–	–	–	–	–	–	–	–
CC(=O)Nc1ccc(C)cc1C(F)(F)C(=O)NCC[C@@H](O)C[C@@H](O)CC(=O)O [Compound 14b, Sodium (3R,5R)-7-(2-(2-acetamido-5-methylphenyl)-2,2-difluoroacetamide)-3,5-dihydroxyheptanoate salt]	Inactive	> 118	No	> 500	> 500	No	> 472	–	–	–	–	–	–	–	–
O=C(Cn1ccnc1[N+](=O)[O-])NCc1ccccc1 [Benznidazole, benznidazole, reference compound]	–	–	–	> 1000	13 ± 2	–	–	169 ± 27.2	>77	92.4	1.83 ± 0.73	87.84 ± 7.08	10	–	–
CCN(CC)CCCC(C)Nc1ccnc2cc(Cl)ccc12 (stereo not drawn) [Chloroquine, chloroquine, reference compound]	–	–	–	–	–	–	–	–	–	–	–	–	–	0.59 ± 0.03	–
CC(C)c1c(C(=O)Nc2ccccc2)c(-c2ccccc2)c(-c2ccc(F)cc2)n1CC[C@@H](O)C[C@@H](O)CC(=O)O [AVA, atorvastatin, reference compound]	–	10.3 ± 1.2	–	–	7.07 ± 1.78	–	–	–	–	–	45.3 ± 3.06	31.73 ± 5.80	–	–	significant cytotoxic effects upon 1000 µM
CC(=O)Nc1ccccc1C(F)(F)C(=O)NCC[C@@H](O)C[C@@H](O)CC(=O)O [Compound 14a, Sodium (3R,5R)-7-(2-(2-acetamido-phenyl)-2,2-difluoroacetamide)-3,5-dihydroxyheptanoate salt]	Inactive	> 122	No	> 500	> 500	No	> 488	–	–	–	–	–	–	–	–
CC(=O)Nc1ccc(Br)cc1C(F)(F)C(=O)NCC[C@@H](O)C[C@@H](O)CC(=O)O [Compound 14d, Sodium (3R,5R)-7-(2-(2-acetamido-5-bromophenyl)-2,2-difluoroacetamide)-3,5-dihydroxyheptanoate salt]	Inactive	> 102	No	> 500	> 500	No	> 409	–	–	–	–	–	–	–	–

Reference: paper PMC10301432, “Antiplasmodial, Trypanocidal, and Genotoxicity In Vitro Assessment of New Hybrid α,α-Difluorophenylacetamide-statin Derivatives” (Pharmaceuticals, 2023)
